Results published in patent US20050059588A1, “Peptides which generate antibodies resulting in lysis of pathologically adherent erythrocytes” (REGENTS OF THE UNIVERSITY OF CALIFORNIA, priority 2003, published 2005).

How the values were obtained:
TSP = assay: Cytoadherence assay: binding of infected erythrocytes made from AE1-modified erythrocytes to immobilized TSP; format: cell-based; details: for binding of treated IEs to TSP, in words: immobilized TSP; for percentage of bound IEs/mm^2 as compared to untreated cells, TSP: uninfected erythrocytes treated (0.5 mg/ml chymotrypsin, 100 μM DIDS or 0.25 mg/ml FMA), then infected, harvested after 40 hr, mean ±SD of triplicate
Protocol: (§1) Uninfected erythrocytes were treated with either 0.25 mg/ml fluorescein maleimide (FMA) (1 hr at 25° C.), 100 μM DIDS (1 hr at 37° C.) or with 0.5 mg/ml chymotrypsin (0.5 hr at 37° C.). Modified erythrocytes were infected and after 40 hr, mature stages were harvested and a standard cytoadherence assay using CD36 or TSP immobilized on slides was carried out. The numbers are the percentage of bound IEs/mm^2 as compared to untreated cells. Each value represents the mean ±SD of triplicate determinations.
(§2) Partially purified CD36 (CD36 fraction) was obtained from human platelets essentially by the method of Tandon et al., J. Biol Chem, 264:7570 (1989). However, the last purification step, using Ultrogel AcA-44, was omitted. TSP was purified as described in Layler et al., J Biol Chem, 253:8609 (1978). To remove excess amount of Triton X-100 in CD36 solution, 5 ml of a CD36 solution containing 0.1% Triton X-100 (initial concentration 268 μg protein/ml) was incubated with 0.5 g of SM-2 beads (Bio-Rad, Hercules, Calif.) at room temperature for 2 h and dialyzed against 500 ml of distilled water. Five microliters of the dialyzed solution was mounted onto multi-well glass slides, and incubated at 4° C. overnight. To immobilize TSP, 5 μl of TSP solution (50 μg/ml in 50 mM Bis-Tris, 100 mM NaCl, 25 mM calcium lactate, pH 7.4 (BTC)) was spotted on plastic slides (Permanox® plastic, Nunc, Neperville, Ill.) and incubated at 4° C. overnight. After removal of the solution by gentle aspiration, CD36- and TSP-immobilized spots were blocked with 1% BSA in phosphate buffered saline (PBS) at room temperature for 1 h.
(§3) Cytoadherence assays were performed as described in Crandall et al., Exp Parasitol, 73:362 (1991) (“Crandall 1991”). In the case of inhibition assay using peptides, the spots of immobilized protein were pretreated with 10 μl of peptide solution (200 μg/ml) in Bis-Tris buffer (50 mM Bis-Tris, 100 mM NaCl, 2 mM CaCl2, pH 6.6 for CD36; 50 mM Bis-Tris, 100 mM NaCl, 2 mM CaCl2, pH 7.4 for 677 cells; BTC for TSP) at 37° C. for 1 h. After removal of the peptide solution, the slides were placed in individual compartments of a partitioned plastic box containing 7 ml Bis-Tris buffer. Fifty microliters of packed red cells (5-10% parasitemia) was added to each compartment of the plastic box. After incubation at 37° C. for 90 min with gentle rocking, the red cell suspension was carefully aspirated. The slides were rinsed by adding 7 ml of the buffer and 5 min of rocking after which time the buffer was aspirated. The slides were washed three times, fixed, and stained as described in Crandall 1991. The number of bound infected red cells/mm^2 area of immobilized protein was counted by light microscopy.

CD36 [1] = assay: Cytoadherence assay: binding of infected erythrocytes made from AE1-modified erythrocytes to immobilized CD36; format: cell-based, human; details: for binding of treated IEs to CD36, in words: immobilized CD36; for percentage of bound IEs/mm^2 as compared to untreated cells, CD36: uninfected erythrocytes treated (0.5 mg/ml chymotrypsin, 100 μM DIDS or 0.25 mg/ml FMA), then infected, harvested after 40 hr, mean ±SD of triplicate
Protocol: as §1, §2, §3

CD36 [2] = target: T1, CD36 (Homo sapiens, UniProt P16671); assay: Competitive binding assay: inhibition of IE binding to immobilized CD36 by DBR peptide; format: cell-based; details: immobilized CD36 incubated with peptide before cytoadherence assay
T1 construct: Partially purified CD36 (CD36 fraction) was obtained from human platelets; from tissue; host or cells: human platelets
Protocol: FIG. 3. […] Immobilized CD36 was incubated with the indicated concentrations of DBR peptide, and then a cytoadherence assay was conducted as shown in the legend of Table 1. Each value represents the mean ±SD of triplicate determinations.
as §2, with “After removal of the solution by gentle aspiration, CD36- and TSP-immobilized spots were blocked with 1% BSA in phosphate buffered saline (PBS) at room temperature for 1 h.” left out
Cytoadherence assays were performed as described in Crandall et al., Exp Parasitol, 73:362 (1991) (“Crandall 1991”). […] The number of bound infected red cells/mm^2 area of immobilized protein was counted by light microscopy.

[3] = target: T2, CD36 transfected CHO cells (Homo sapiens, UniProt P16671); assay: Interaction of biotin labeled DBR peptide with CD36 transfected CHO cells; format: binding; details: 40 μg/ml biotin labeled peptide, 1 hour at 37° C.
T2 construct: expressed in transfected cells; host or cells: CHO cells
Protocol: FIG. 2. Interaction of DBR peptide with CD36 transfected CHO cells. Cells were incubated for 1 hour at 37° C. with 40 μg/ml biotin labeled peptide, followed by 20 μg/ml Alexa-conjugated streptavidin.
To confirm that the DIDS binding region (DBR) of AE1 is involved in IE adhesion, two different kinds of in vitro assays were carried out.

[4] = system: immunoglobulins from individuals living in a malaria endemic region; assay: ELISA: binding of IE-surface-eluted human immunoglobulins to immobilized DBR peptide; details: surface bound immunoglobulins eluted from IEs
Protocol: FIG. 4. Recognition of the DBR peptide by immunoglobulins from individuals living in a malaria endemic region (“immunes”). Human sera from either control or “immunes” were added to human erythrocytes infected with P. falciparum (“IEs”) and after incubation, the surface bound immunoglobulins were eluted using isotonic glycine buffer pH 3.0. Biotin labeled peptides were immobilized on 96 well plates using streptavidin, and the specific binding of the surface eluted immunoglobulins to the peptides was determined using alkaline phosphatase conjugated anti-human IgG.
To explore whether DBR is exposed as a consequence of parasite development, sera from individuals living in a region where malaria is endemic or from a control group was incubated with intact live IEs and the surface bound immunoglobulins eluted by a low pH treatment.

[5] = Tolerability in animals immunized with the peptide; format: in vivo, rabbit

T1 sequence (P16671 whole entry): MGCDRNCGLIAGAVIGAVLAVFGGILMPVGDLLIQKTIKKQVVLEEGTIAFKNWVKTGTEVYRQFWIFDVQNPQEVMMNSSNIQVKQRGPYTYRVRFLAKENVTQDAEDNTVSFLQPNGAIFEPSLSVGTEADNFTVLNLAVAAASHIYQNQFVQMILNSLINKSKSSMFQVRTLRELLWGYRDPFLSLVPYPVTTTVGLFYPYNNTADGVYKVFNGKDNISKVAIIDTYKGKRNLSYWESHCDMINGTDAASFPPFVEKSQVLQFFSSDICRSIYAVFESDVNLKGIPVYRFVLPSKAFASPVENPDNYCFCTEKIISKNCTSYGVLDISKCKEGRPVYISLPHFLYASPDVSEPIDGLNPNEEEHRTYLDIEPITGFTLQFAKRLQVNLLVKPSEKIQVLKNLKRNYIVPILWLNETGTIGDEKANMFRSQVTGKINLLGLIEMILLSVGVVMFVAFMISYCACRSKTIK
T2 sequence (P16671 whole entry): as above

Molecule	binding of treated IEs to TSP, in words (TSP)	percentage of bound IEs/mm^2 as compared to untreated cells, TSP (TSP) [percentage]	binding of treated IEs to CD36, in words (CD36 [1])	percentage of bound IEs/mm^2 as compared to untreated cells, CD36 (CD36 [1])	inhibition of IE binding to immobilized CD36 (CD36 [2])	inhibition of IE binding to immobilized CD36 (CD36 [2]; listed as DBR peptides)	interaction with CD36 transfected CHO cells [3]	recognition of the DBR by immunoglobulins of individuals living in an endemic area [4]	anemia or other ill effects in immunized animals [5]
O=S(=O)(O)c1cc(N=C=S)ccc1C=Cc1ccc(N=C=S)cc1S(=O)(=O)O [DIDS, 4,4′-diisothiocyanatostilbene-2,2′-disulfonic acid]	not to TSP	93.5 ± 35.9	lower binding to CD36	33.2 ± 4.1 percentage	–	–	–	–	–
O=C1OC2(c3ccc(O)cc3Oc3cc(O)ccc32)c2ccc(N3C(=O)C=CC3=O)cc21 [FMA, Fluorescein maleimide]	did not reduce the binding	180.9 ± 26.0	did not reduce the binding	135.1 ± 12.9 percentage	–	–	–	–	–
Chymotrypsin	largely unaffected	81.0 ± 17.7	significant reduction	10.2 + 17.5 percentage	–	–	–	–	–
YETFSKLIKIFQDH [DBR peptide]	–	–	–	–	Concentration dependent inhibition	inhibited the binding	interacted with high affinity and specificity	strong humoral immune response	no anemia or other ill effects
